Experimental data: patent publication US20180244611A1, “Modulators of the Cystic Fibrosis Transmembrane Conductance Regulator Protein and Methods of Use” (AbbVie S.à.r.l., priority 2017, published 2018)

How the values were obtained:
F508delCFTR [1] = target: T1, F508delCFTR (Homo sapiens, UniProt P13569, DEL508-508); experiment: Cell Surface Expression-Horse Radish Peroxidase (CSE-HRP) assay, test compound with co-corrector; type: cell-based; details: with 2 μM co-corrector; for Maximum % activity (with co-corrector): maximum at any tested concentration, normalized to positive control;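 for Maximum % activity (with co-corrector): percent of 2 µM positive control corrector over DMSO; co-corrector is that same compound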
T1 construct: expressed in transfected cells; host or cells: CFBE41o- human lung-derived epithelial cells (CFBE41o-F508delCFTR-HRP), doxycycline-inducible
T1 sequence (P13569 with tags, fused parts or gaps DEL508-508): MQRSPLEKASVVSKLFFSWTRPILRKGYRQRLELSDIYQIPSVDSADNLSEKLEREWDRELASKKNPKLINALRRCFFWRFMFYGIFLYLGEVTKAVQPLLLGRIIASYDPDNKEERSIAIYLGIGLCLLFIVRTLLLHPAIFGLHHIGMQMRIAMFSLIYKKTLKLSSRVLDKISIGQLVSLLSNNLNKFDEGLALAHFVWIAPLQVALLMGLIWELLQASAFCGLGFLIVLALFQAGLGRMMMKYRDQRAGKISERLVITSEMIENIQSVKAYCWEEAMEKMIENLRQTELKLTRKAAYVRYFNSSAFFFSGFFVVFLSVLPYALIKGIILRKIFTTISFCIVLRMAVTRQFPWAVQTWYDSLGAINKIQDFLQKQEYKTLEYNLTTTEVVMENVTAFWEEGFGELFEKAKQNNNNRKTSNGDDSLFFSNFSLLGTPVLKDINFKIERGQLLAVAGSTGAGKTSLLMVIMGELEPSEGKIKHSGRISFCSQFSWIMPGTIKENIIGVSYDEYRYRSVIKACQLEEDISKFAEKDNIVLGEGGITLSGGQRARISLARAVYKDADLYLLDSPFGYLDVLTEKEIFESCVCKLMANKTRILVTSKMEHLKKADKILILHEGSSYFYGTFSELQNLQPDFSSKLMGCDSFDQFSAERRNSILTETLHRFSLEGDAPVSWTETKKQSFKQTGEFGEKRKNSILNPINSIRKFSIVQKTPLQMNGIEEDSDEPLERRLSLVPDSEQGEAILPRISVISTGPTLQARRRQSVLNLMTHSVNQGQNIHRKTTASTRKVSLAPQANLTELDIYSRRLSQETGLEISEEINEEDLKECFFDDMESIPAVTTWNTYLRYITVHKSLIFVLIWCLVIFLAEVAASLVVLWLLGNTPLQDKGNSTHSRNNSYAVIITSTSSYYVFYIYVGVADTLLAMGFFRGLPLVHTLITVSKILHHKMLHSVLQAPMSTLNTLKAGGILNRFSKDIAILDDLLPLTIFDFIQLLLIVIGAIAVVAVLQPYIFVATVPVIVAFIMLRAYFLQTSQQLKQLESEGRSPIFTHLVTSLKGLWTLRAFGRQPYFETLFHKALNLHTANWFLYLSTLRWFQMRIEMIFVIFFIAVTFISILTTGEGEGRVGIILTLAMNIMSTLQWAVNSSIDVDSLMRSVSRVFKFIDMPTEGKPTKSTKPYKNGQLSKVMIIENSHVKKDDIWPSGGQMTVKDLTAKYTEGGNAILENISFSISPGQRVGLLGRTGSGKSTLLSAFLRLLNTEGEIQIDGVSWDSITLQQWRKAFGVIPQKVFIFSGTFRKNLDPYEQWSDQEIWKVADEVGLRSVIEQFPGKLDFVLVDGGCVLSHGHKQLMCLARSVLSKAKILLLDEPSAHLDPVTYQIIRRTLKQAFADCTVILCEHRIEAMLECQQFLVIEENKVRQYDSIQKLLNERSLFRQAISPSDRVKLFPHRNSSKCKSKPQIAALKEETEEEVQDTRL
How it was run: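 Surface-expression read-out: luminol luminescence from an HRP tag in the fourth exofacial loop of F508delCFTR, in doxycycline-induced (0.5 μg/mL, 72 h) CFBE41o- cells. Compound plus 2 μM co-corrector added for 18-24 h at 33° C., 8-point 3-fold series up to 20 μM. EC50 from a sigmoidal fit with variable Hill slope, normalised to positive control, triplicate plates.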

F508delCFTR [2] = target: T1, F508delCFTR; experiment: Cell Surface Expression-Horse Radish Peroxidase (CSE-HRP) assay, test compound without co-corrector; type: cell-based; details: for Emax: maximum at any tested concentration, normalized to positive control, without co-corrector; for EC50: test compound without co-corrector;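 for Emax: percent of on-plate 2 µM positive control corrector response over DMSO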
How it was run: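 Compound without co-corrector was tested at eight 3-fold concentrations, top 20 μM, for 18-24 h at 33° C on doxycycline-induced (0.5 μg/mL, 72 h) CFBE41o- F508delCFTR-HRP cells. After DPBS washes, luminol luminescence gave % activity relative to on-plate positive control minus DMSO; EC50 came from triplicate-plate sigmoidal fitting.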

SMILES | Maximum % activity (with co-corrector) (F508delCFTR [1]) | EC50 (F508delCFTR [1]) [µM] | Emax (F508delCFTR [2]) [%] | EC50 (F508delCFTR [2]) [µM]
COc1ncc(Cl)c2c1C(C(=O)NS(=O)(=O)c1cccc3ccccc13)CC2 (stereo not drawn) [Example I-112, 4-chloro-1-methoxy-N-(naphthalene-1-sulfonyl)-6,7-dihydro-5H-cyclopenta[c]pyridine-7-carboxamide] | +++ (≥350) | 3 to 10 | ≥ 150 | 3 to 10
COc1ccc(C(F)(F)F)c2c1[C@@H](C(=O)NS(=O)(=O)c1cccc3nc(C)ccc13)CC2 [Example I-117, (1S)-7-methoxy-N-(2-methylquinoline-5-sulfonyl)-4-(trifluoromethyl)-2,3-dihydro-1H-indene-1-carboxamide] | +++ (≥350) | 3 to 10 | ≥ 150 | 3 to 10
COc1ccc(C2CCC2)c2c1C(C(=O)NS(=O)(=O)c1cccc3c1NCCC3)CC2 (stereo not drawn) [Example I-119, 4-cyclobutyl-7-methoxy-N-(1,2,3,4-tetrahydroquinoline-8-sulfonyl)-2,3-dihydro-1H-indene-1-carboxamide] | +++ (≥350) | 3 to 10 | ≥ 150 | 3 to 10
COc1ncc(C2CCC2)c2c1[C@@H](C(=O)NS(=O)(=O)c1cccc3ccccc13)CCC2 [Example I-121, (8S)-4-cyclobutyl-1-methoxy-N-(naphthalene-1-sulfonyl)-5,6,7,8-tetrahydroisoquinoline-8-carboxamide] | +++ (≥350) | 3 to 10 | ≥ 150 | 3 to 10
COc1ccc(C2CCC2)c2c1[C@@H](C(=O)NS(=O)(=O)c1cccc3c1CCCN3)CC2 [Example I-122, (1S)-4-cyclobutyl-7-methoxy-N-(1,2,3,4-tetrahydroquinoline-5-sulfonyl)-2,3-dihydro-1H-indene-1-carboxamide] | +++ (≥350) | 3 to 10 | ≥ 150 | 3 to 10
COc1ccc(C(C)(C)O)c2c1C(C(=O)NS(=O)(=O)c1cccc3ccccc13)CC2 (stereo not drawn) [Example I-125, 4-(2-hydroxypropan-2-yl)-7-methoxy-N-(naphthalene-1-sulfonyl)-2,3-dihydro-1H-indene-1-carboxamide] | +++ (≥350) | 3 to 10 | 50 to 150 | 3 to 10
COc1ccc(C2CCC2)c2c1C(C(=O)NS(=O)(=O)c1cccc3cnn(C)c13)C2 (stereo not drawn) [Example I-132, 2-cyclobutyl-5-methoxy-N-(1-methyl-1H-indazole-7-sulfonyl)bicyclo[4.2.0]octa-1,3,5-triene-7-carboxamide] | +++ (≥350) | < 3 | ≥ 150 | < 3
COc1ccc(C2CCC2)c2c1C(C(=O)NS(=O)(=O)c1cccc3ncn(C)c13)CC2 (stereo not drawn) [Example I-133, 4-cyclobutyl-7-methoxy-N-(1-methyl-1H-benzimidazole-7-sulfonyl)-2,3-dihydro-1H-indene-1-carboxamide] | +++ (≥350) | < 3 | ≥ 150 | < 3
COc1ccc(C2CCC2)c2c1C(C(=O)NS(=O)(=O)c1cccn3nccc13)CC2 (stereo not drawn) [Example I-135, 4-cyclobutyl-7-methoxy-N-(pyrazolo[1,5-a]pyridine-4-sulfonyl)-2,3-dihydro-1H-indene-1-carboxamide] | +++ (≥350) | < 3 | ≥ 150 | 3 to 10
COc1ccc(C2CCC2)c2c1C(C(=O)NS(=O)(=O)c1cccn3nccc13)C2 (stereo not drawn) [Example I-136, 2-cyclobutyl-5-methoxy-N-(pyrazolo[1,5-a]pyridine-4-sulfonyl)bicyclo[4.2.0]octa-1,3,5-triene-7-carboxamide] | +++ (≥350) | < 3 | ≥ 150 | < 3
COc1ccc(C2CCCO2)c2c1C(C(=O)NS(=O)(=O)c1cccc3ccccc13)CC2 (stereo not drawn) [Example I-138, 7-methoxy-N-(naphthalene-1-sulfonyl)-4-(oxolan-2-yl)-2,3-dihydro-1H-indene-1-carboxamide] | +++ (≥350) | < 3 | ≥ 150 | 3 to 10
COCc1ccc(OC)c2c1CCC2C(=O)NS(=O)(=O)c1cccc2ccccc12 (stereo not drawn) [Example I-139, 7-methoxy-4-(methoxymethyl)-N-(naphthalene-1-sulfonyl)-2,3-dihydro-1H-indene-1-carboxamide] | +++ (≥350) | < 3 | ≥ 150 | 3 to 10

Now from value to compound:

Maximum % activity (with co-corrector) (F508delCFTR [1]) | EC50 (F508delCFTR [1]) [µM] | Emax (F508delCFTR [2]) [%] | EC50 (F508delCFTR [2]) [µM] | SMILES
+++ (≥350) | < 3 | ≥ 150 | 3 to 10 | COc1ncc(Br)c2c1C(C(=O)NS(=O)(=O)c1cccc3ccccc13)CCC2 (stereo not drawn) [Example I-113, 4-bromo-1-methoxy-N-(naphthalene-1-sulfonyl)-5,6,7,8-tetrahydroisoquinoline-8-carboxamide]
+++ (≥350) | < 3 | ≥ 150 | < 3 | COc1ccc(C2CCC2)c2c1C(C(=O)NS(=O)(=O)c1cccc3ncccc13)C2 (stereo not drawn) [Example I-114, 2-cyclobutyl-5-methoxy-N-(quinoline-5-sulfonyl)bicyclo[4.2.0]octa-1,3,5-triene-7-carboxamide]
+++ (≥350) | < 3 | ≥ 150 | 3 to 10 | COc1ncc(Br)c2c1[C@@H](C(=O)NS(=O)(=O)c1cccc3ccccc13)CCC2 [Example I-115, (8S)-4-bromo-1-methoxy-N-(naphthalene-1-sulfonyl)-5,6,7,8-tetrahydroisoquinoline-8-carboxamide]
+++ (≥350) | < 3 | ≥ 150 | < 3 | COc1ncc(Br)c2c1[C@H](C(=O)NS(=O)(=O)c1cccc3ccccc13)CCC2 [Example I-116, (8R)-4-bromo-1-methoxy-N-(naphthalene-1-sulfonyl)-5,6,7,8-tetrahydroisoquinoline-8-carboxamide]
+++ (≥350) | < 3 | ≥ 150 | < 3 | COc1ccc(C(F)(F)F)c2c1[C@H](C(=O)NS(=O)(=O)c1cccc3nc(C)ccc13)CC2 [Example I-118, (1R)-7-methoxy-N-(2-methylquinoline-5-sulfonyl)-4-(trifluoromethyl)-2,3-dihydro-1H-indene-1-carboxamide]
+++ (≥350) | < 3 | ≥ 150 | < 3 | COc1ncc(C2CCC2)c2c1[C@H](C(=O)NS(=O)(=O)c1cccc3ccccc13)CCC2 [Example I-120, (8R)-4-cyclobutyl-1-methoxy-N-(naphthalene-1-sulfonyl)-5,6,7,8-tetrahydroisoquinoline-8-carboxamide]
+++ (≥350) | < 3 | ≥ 150 | 3 to 10 | COc1ccc(C2CCC2)c2c1[C@@H](C(=O)NS(=O)(=O)c1cccc3ncn(C)c13)CC2 [Example I-123, (1S)-4-cyclobutyl-7-methoxy-N-(1-methyl-1H-benzimidazole-7-sulfonyl)-2,3-dihydro-1H-indene-1-carboxamide]
+++ (≥350) | < 3 | ≥ 150 | < 3 | C=C(C)c1ccc(OC)c2c1CCC2C(=O)NS(=O)(=O)c1cccc2ccccc12 (stereo not drawn) [Example I-124, 7-methoxy-N-(naphthalene-1-sulfonyl)-4-(prop-1-en-2-yl)-2,3-dihydro-1H-indene-1-carboxamide]
+++ (≥350) | < 3 | ≥ 150 | < 3 | COc1ccc(C2CCC2)c2c1[C@H](C(=O)NS(=O)(=O)c1cccc3ncn(C)c13)CC2 [Example I-126, (1R)-4-cyclobutyl-7-methoxy-N-(1-methyl-1H-benzimidazole-7-sulfonyl)-2,3-dihydro-1H-indene-1-carboxamide]
+++ (≥350) | < 3 | ≥ 150 | 3 to 10 | COc1ccc(C2CCC2)c2c1[C@@H](C(=O)NS(=O)(=O)c1cccc3nc(C)ccc13)CC2 [Example I-127, (1S)-4-cyclobutyl-7-methoxy-N-(2-methylquinoline-5-sulfonyl)-2,3-dihydro-1H-indene-1-carboxamide]
+++ (≥350) | < 3 | ≥ 150 | 3 to 10 | COc1ccc(C2CCC2)c2c1[C@H](C(=O)NS(=O)(=O)c1cccc3nc(C)ccc13)CC2 [Example I-128, (1R)-4-cyclobutyl-7-methoxy-N-(2-methylquinoline-5-sulfonyl)-2,3-dihydro-1H-indene-1-carboxamide]
+++ (≥350) | < 3 | ≥ 150 | < 3 | COc1ccc(C2CCC2)c2c1[C@H](C(=O)NS(=O)(=O)c1cccc3c1CCCN3)CC2 [Example I-129, (1R)-4-cyclobutyl-7-methoxy-N-(1,2,3,4-tetrahydroquinoline-5-sulfonyl)-2,3-dihydro-1H-indene-1-carboxamide]
